From patent US11649222B2, “Compounds” (UNIVERSITETET I OSLO, priority 2016, dated 2023)
Where two headings read alike, the source gives them in different places.

Legend:
[1] = system: resistant gram-negative MBL-based bacteria; assay: MICx: adjuvant concentration giving carbapenem MIC ≤ 2 mg/L; type: cell-based; settings: lowest concentration of compound X that results in a MIC value of ≤ 2 mg/L for carbapenem antibiotics
Procedure, shortened: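 Broth microdilution in MH broth; 0.5 McFarland suspension diluted 1:100 to a final inoculum of 3-7×10^5 CFU/ml. Compounds tested as 2-fold dilutions in MH broth. Carbapenemase/ESBL strains were pre-grown overnight at 37 °C on agar containing 100 mg/L ampicillin.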

rH glyoxylase II = rH glyoxylase II (Homo sapiens, UniProt Q16775); assay: Interaction with zinc-containing human enzyme; type: biochemical; settings: 62.5-500 μM, 30 min, 25° C.
E. coli 50676002 (NDM-1) = assay: Checkerboard MIC, Example 26 and meropenem; type: cell-based; settings: for MIC: Escherichia coli
Method: (§1) A checkerboard MIC assay was using the broth dilution method according to CLSI guidelines. […] Dilutions to 4 mg/ml was performed by adding+4.75 ml sterile saline to 0.25 ml of the stock solution, and dilutions to 512 μg/ml was performed by adding 10.9 ml MH-broth to the 4 mg/ml solution. Inoculums of bacterial strains as described in Table 4 were prepared by suspending fresh overnight colonies from 5% horse blood agar were to a turbidity of 0.5 McFarland and further diluted to 1×10^6 CFU/ml in MH-broth. Aliquots of 50 μl of MH-broth were added to each well of polystyrene microtiter plates. […] The plates were incubated at 35° C., 16-20 hours.

E. coli AMA323 (VIM-4) = assay: Checkerboard MIC, Example 26 and meropenem; type: cell-based; settings: for MIC: Escherichia coli
Method: as §1

[2] = system: K. pneumonia 50627996 (NDM-1); assay: Checkerboard MIC, Example 26 and meropenem; type: cell-based; settings: for MIC: Klebsiella pneumoniae
Method: as §1

E. coli 50921466 (VIM-1) = assay: Checkerboard MIC, Example 26 and meropenem; type: cell-based; settings: for MIC: Escherichia coli
Method: as §1

E. coli AMA1563 (NDM-5) = assay: Checkerboard MIC, Example 26 and meropenem; type: cell-based; settings: for MIC: Escherichia coli
Method: as §1

E. coli AMA817 (NDM-1) = assay: Checkerboard MIC, Example 26 and meropenem; type: cell-based; settings: for MIC: Escherichia coli
Method: as §1

[3] = system: K. pneumonia 50923744 (VIM); assay: Checkerboard MIC, Example 26 and meropenem; type: cell-based; settings: for MIC: Klebsiella pneumoniae
Method: as §1

E. coli 50739822 (NDM-1) = assay: Checkerboard MIC, Example 26 and meropenem; type: cell-based; settings: for MIC: Escherichia coli
Method: as §1

[4] = system: K. pneumonia K46-62 (VIM-1); assay: Checkerboard MIC, Example 26 and meropenem; type: cell-based; settings: for MIC: Klebsiella pneumoniae
Method: as §1

[5] = system: K. pneumonia K45-67 (VIM-1); assay: Checkerboard MIC, Example 26 and meropenem; type: cell-based; settings: for MIC: Klebsiella pneumoniae
Method: as §1

[6] = system: K. pneumonia 50752501 (NDM-1); assay: Checkerboard MIC, Example 26 and meropenem; type: cell-based; settings: for MIC: Klebsiella pneumoniae
Method: as §1

[7] = system: K. pneumonia K66-45 (NDM-1); assay: Checkerboard MIC, Example 26 and meropenem; type: cell-based; settings: for MIC: Klebsiella pneumoniae
Method: as §1

[8] = system: K. pneumonia 50877064 (NDM-1); assay: Checkerboard MIC, Example 26 and meropenem; type: cell-based; settings: for MIC: Klebsiella pneumoniae
Method: as §1

[9] = system: K. pneumonia 50690310 (NDM-1); assay: Checkerboard MIC, Example 26 and meropenem; type: cell-based; settings: for MIC: Klebsiella pneumoniae
Method: as §1

[10] = system: K. pneumonia 50825040 (NDM-1); assay: Checkerboard MIC, Example 26 and meropenem; type: cell-based; settings: for MIC: Klebsiella pneumoniae
Method: as §1

[11] = system: K. pneumoniae K66-45 and P. aeruginosa K34-7; assay: Microbroth dilution MIC, carbapenem + inhibitor, two resistant clinical isolates; type: cell-based; settings: Example 26 25 mg/L, three batches; meropenem and doripenem
Method: • Plate bacterial strain(s) on appropriate media: • Gram-negative bacteria with ESBLs or carbapenemases: green agar plates with 100 mg/L ampicillin • Gram-negative bacteria without β-lactamases: green agar plates • Gram-positive bacteria (Staphylococci and Enterococci): blood agar plates • Incubate o.n. at 37° C. Day 2: Prepare the Bacterial Inoculum: • Prepare a 0.5 McFarland suspension of bacteria in 0.85% NaCl. (Should be used within 15 min of preparation). • Dilute the 0.5 McFarland suspension 1:100 into MH broth. Check the inoculum by diluting the prepared bacterial suspension 1:100 (10 μl bacterial suspension+990 μl 0.85% NaCl). Plate 10 μl of the dilution on MH agar plates (×2). Incubate o.n. at 37° C., count the colonies and calculate the final CFU/ml inoculum in the plate by multiplying the average number of colonies with 10000 and divide by 2. The final inoculum should be between 3-7×10^5 CFU/ml. • Add 50 μl of the prepared bacterial suspension to each well in the microtiter plate except negative growth control. Preparation of Compounds/Antibiotics • Calculate the desired concentration-range and volume of the compounds/antibiotics in the assay. […] Dilute the stock solution in MH broth. Make subsequent 2-fold dilutions in MH broth of the desired concentrations if a concentration range is to be tested (remember the extra dilution factor in the assay plate). Always include extra volume for pipetting. Take into consideration stock solutions that are made in buffers that have an effect on bacterial growth (e.g. DMSO).

[12] = system: meropenem-resistant K. pneumonia and E. coli; assay: Checkerboard MIC, all MDR isolates; type: cell-based; settings: for some of the strains
Method: as §1

[13] = read-out: MIC alone, Example 26

CN(C[C@H](O)[C@@H](O)[C@H](O)[C@H](O)CO)C(=O)c1ccc(CN(Cc2ccccn2)Cc2ccccn2)nc1 [Example 26, 6-((bis(pyridin-2-ylmethyl)amino)methyl)-N-methyl-N-((2S,3R,4R,5R)-2,3,4,5,6-pentahydroxyhexyl)nicotinamide]
25 µg/mL: MIC in combination, Example 26 (E. coli AMA1563 (NDM-5); with meropenem) | MIC in combination, Example 26 ([6]; with meropenem)
31 µM: MICx [1]
12.5 µg/mL: MIC in combination, Example 26 (E. coli 50676002 (NDM-1); with meropenem) | MIC in combination, Example 26 (E. coli AMA323 (VIM-4); with meropenem) | MIC in combination, Example 26 ([2]; with meropenem) | MIC in combination, Example 26 (E. coli 50921466 (VIM-1); with meropenem) | MIC in combination, Example 26 (E. coli AMA817 (NDM-1); with meropenem) | MIC in combination, Example 26 ([3]; with meropenem) | MIC in combination, Example 26 (E. coli 50739822 (NDM-1); with meropenem) | MIC in combination, Example 26 ([4]; with meropenem) | MIC in combination, Example 26 ([5]; with meropenem) | MIC in combination, Example 26 ([7]; with meropenem) | MIC in combination, Example 26 ([8]; with meropenem) | MIC in combination, Example 26 ([9]; with meropenem) | MIC in combination, Example 26 ([10]; with meropenem)
> 400 µg/mL: MIC (E. coli 50676002 (NDM-1); [13]) | MIC (E. coli AMA323 (VIM-4); [13]) | MIC [2, 13] | MIC (E. coli 50921466 (VIM-1); [13]) | MIC (E. coli AMA1563 (NDM-5); [13]) | MIC (E. coli AMA817 (NDM-1); [13]) | MIC [3, 13] | MIC (E. coli 50739822 (NDM-1); [13]) | MIC [4, 13] | MIC [5, 13] | MIC [6, 13] | MIC [7, 13] | MIC [8, 13] | MIC [9, 13] | MIC [10, 13]
32-256 times: factor of potentiation of carbapenems [11]
> 1000 times: amplification of the effect of meropenem [12]
does not interact with rH glyoxylase II: interaction with rH glyoxylase II (rH glyoxylase II)

C[C@@H](O)[C@H]1C(=O)N2C(C(=O)O)=C(S[C@@H]3CN[C@H](C(=O)N(C)C)C3)[C@H](C)[C@H]12 [meropenem, reference compound]
16 µg/mL: MIC ([9]; read-out: MIC alone, Meropenem)
0.125 µg/mL: MIC in combination, Meropenem ([2]; with Example 26)
2 µg/mL: MIC (E. coli 50921466 (VIM-1); read-out: MIC alone, Meropenem) | MIC ([3]; read-out: MIC alone, Meropenem)
64 µg/mL: MIC ([2]; read-out: MIC alone, Meropenem) | MIC (E. coli AMA1563 (NDM-5); read-out: MIC alone, Meropenem) | MIC ([6]; read-out: MIC alone, Meropenem) | MIC ([7]; read-out: MIC alone, Meropenem) | MIC ([8]; read-out: MIC alone, Meropenem) | MIC ([10]; read-out: MIC alone, Meropenem)
≤0.0625 µg/mL: MIC in combination, Meropenem (E. coli 50676002 (NDM-1); with Example 26) | MIC in combination, Meropenem (E. coli AMA323 (VIM-4); with Example 26) | MIC in combination, Meropenem (E. coli 50921466 (VIM-1); with Example 26) | MIC in combination, Meropenem (E. coli AMA1563 (NDM-5); with Example 26) | MIC in combination, Meropenem (E. coli AMA817 (NDM-1); with Example 26) | MIC in combination, Meropenem ([3]; with Example 26) | MIC in combination, Meropenem (E. coli 50739822 (NDM-1); with Example 26) | MIC in combination, Meropenem ([4]; with Example 26) | MIC in combination, Meropenem ([5]; with Example 26) | MIC in combination, Meropenem ([6]; with Example 26) | MIC in combination, Meropenem ([7]; with Example 26) | MIC in combination, Meropenem ([8]; with Example 26) | MIC in combination, Meropenem ([9]; with Example 26) | MIC in combination, Meropenem ([10]; with Example 26)
32 µg/mL: MIC (E. coli 50676002 (NDM-1); read-out: MIC alone, Meropenem) | MIC (E. coli AMA817 (NDM-1); read-out: MIC alone, Meropenem) | MIC (E. coli 50739822 (NDM-1); read-out: MIC alone, Meropenem) | MIC ([4]; read-out: MIC alone, Meropenem) | MIC ([5]; read-out: MIC alone, Meropenem)
8 µg/mL: MIC (E. coli AMA323 (VIM-4); read-out: MIC alone, Meropenem)
